Measurements from US7244760B2, “Methods for preparation and use of psorospermin analogs” (Board of Regents, The University of Texas System, priority 2001, dated 2007).
“Also recorded” adds a separate entry of the source. Like-named read-outs stand apart in the source and are kept apart here.

Legend:
MiaPaCa-2 (pancreatic) = experiment: Microcytoxicity assay (SRB), MiaPaCa-2; format: cell-based, human; conditions: for In vitro cytotoxic potency: MiaPaCa-2, 4 days, SRB
Text: (§1) (i) Human tumor cell lines. Human tumor cell lines representative of major forms of human cancer for use in the microcytoxicity assay include MCF7 (breast), SW480 (colon), HL-60 (promyelocytic leukemia), MiaPaCa-2 (pancreatic), U937 (histiocytic lymphoma), and 8226 (myeloma) (see Table 5). One drug resistant variant of 8226 was also included: 8226/DOX40, an mdr-1-mediated drug resistant cell line. Other matched pairs may also be added. All lines have known karyotypes that are checked at least annually for quality control.
(§2) Cells were grown in suspension in RPMI 1640 medium supplemented with 5% fetal bovine serum, 1% (v/v) penicillin (100 unit/ml), streptomycin (100 μg/ml), and 1% (v/v) L-glutamine (all from GIBCO, Grand Island, N.Y.) at 37° C. in 5% CO2, 95% air atmosphere, and were passaged once every six days. Additionally, these lines are capable of in vivo growth in SCID mice for in vivo confirmatory studies. In initial experiments, two diastereomeric pairs of (±)-psorospermin methyl ethers in a series of cell lines were evaluated.
(§3) (ii) Microcytoxicity assay. A standard 96-well microcytoxicity assay is performed by plating each cell line in a microtiter plate at 4,000-10,000 cells per well (depending on cell doubling time), six replicate wells per drug dose. All plates are incubated for 4 days at 37° C. in a humidified tissue culture incubator containing 5% CO2 in air. The endpoint determination uses sulforhodamine blue (SRB) and spectrophotometric determination of protein content of each well as reflected by SRB staining. IC50 values were calculated by linear regression analysis.

MCF7 (breast) = experiment: Microcytoxicity assay (SRB), MCF7; format: cell-based, human; conditions: for In vitro cytotoxic potency: 4 days, SRB
Text: as §1, §2, §3

[1] = tested on: 8226/DOX40, an mdr-1-mediated drug resistant cell line; experiment: Microcytoxicity assay (SRB), 8226/DOX40; format: cell-based, human; conditions: 4 days
Text: as §1, §2
(§4) (ii) Microcytoxicity assay. A standard 96-well microcytoxicity assay is performed by plating each cell line in a microtiter plate at 4,000-10,000 cells per well (depending on cell doubling time), six replicate wells per drug dose. […] IC50 values were calculated by linear regression analysis.

[2] = tested on: HL-60 (promyelocytic leukemia); experiment: Microcytoxicity assay (SRB), HL-60; format: cell-based, human
Text: as §1, §2, §3

8226 (myeloma) = experiment: Microcytoxicity assay (SRB), 8226; format: cell-based, human; conditions: 4 days
Text: as §1, §2, §4

SW480 (colon) = experiment: Microcytoxicity assay (SRB), SW480; format: cell-based, human; conditions: 4 days
Text: as §1, §2, §4

HT-29 = experiment: Microcytoxicity assay (SRB), HT-29; format: cell-based, human
Description: as §3

DU 145 = experiment: Microcytoxicity assay (SRB), DU 145; format: cell-based, human
Description: as §2, §3

PC-3N = experiment: Microcytoxicity assay (SRB), PC-3N; format: cell-based, human; conditions: Prostate, N-cadherin positive
Description: as §2, §3

[3] = tested on: A2780/CP70 (cisplatin resistant); experiment: Microcytoxicity assay (SRB), A2780/CP70; format: cell-based, human; conditions: Ovarian
Description: as §2, §3

LnCAP = experiment: Microcytoxicity assay (SRB), LnCAP; format: cell-based, human; conditions: Prostate, lymph node mets
Description: as §2, §3

[4] = tested on: HL60/AR (adriamycin resistant); experiment: Microcytoxicity assay (SRB), HL60/AR; format: cell-based, human; conditions: Acute promyelocytic leukemia
Description: as §2, §3

[5] = tested on: K562/R (daunorubicin resistant); experiment: Microcytoxicity assay (SRB), K562/R; format: cell-based, human; conditions: Chronic myelogenous leukemia
Description: as §2, §3

MCF 10A = experiment: Microcytoxicity assay (SRB), MCF 10A; format: cell-based; conditions: Breast, normal mammary
Description: as §2, §3

PEAZ-1 = experiment: Microcytoxicity assay (SRB), PEAZ-1; format: cell-based, human; conditions: Prostate, primary
Description: as §2, §3

tumor cell lines = experiment: Microcytoxicity assay, all tumor cell lines tested; format: cell-based, human; conditions: on average over the cell lines of Table 5
Text: as §1, §2, §4

K562 = experiment: Microcytoxicity assay (SRB), K562; format: cell-based, human; conditions: Chronic myelogenous leukemia
Description: as §2, §3

PC-3 = experiment: Microcytoxicity assay (SRB), PC-3; format: cell-based, human; conditions: Prostate, adenocarcinoma, mets
Description: as §2, §3

[6] = tested on: U937 (histiocytic lymphoma); experiment: Microcytoxicity assay (SRB), U937; format: cell-based, human; conditions: 4 days
Text: as §1, §2, §4

A2780 = experiment: Microcytoxicity assay (SRB), A2780; format: cell-based, human; conditions: Ovarian
Description: as §2, §3

[7] = tested on: Acute promyelocytic leukemia; experiment: Microcytoxicity assay (SRB), cell line not given; format: cell-based, human; conditions: cell line cell empty; origin Acute promyelocytic leukemia
Description: as §2, §3

P388 mouse leukemia = conditions: cited from earlier work
various tumor cell lines = conditions: cited from earlier work
[8] = target: topoisomerase II-DNA complex (Drosophila melanogaster, UniProt P15348); experiment: Topoisomerase II site-directed alkylation of DNA; format: biochemical; conditions: in the presence of topoisomerase II
Chain of topoisomerase II-DNA complex (P15348 whole entry, one chain of several): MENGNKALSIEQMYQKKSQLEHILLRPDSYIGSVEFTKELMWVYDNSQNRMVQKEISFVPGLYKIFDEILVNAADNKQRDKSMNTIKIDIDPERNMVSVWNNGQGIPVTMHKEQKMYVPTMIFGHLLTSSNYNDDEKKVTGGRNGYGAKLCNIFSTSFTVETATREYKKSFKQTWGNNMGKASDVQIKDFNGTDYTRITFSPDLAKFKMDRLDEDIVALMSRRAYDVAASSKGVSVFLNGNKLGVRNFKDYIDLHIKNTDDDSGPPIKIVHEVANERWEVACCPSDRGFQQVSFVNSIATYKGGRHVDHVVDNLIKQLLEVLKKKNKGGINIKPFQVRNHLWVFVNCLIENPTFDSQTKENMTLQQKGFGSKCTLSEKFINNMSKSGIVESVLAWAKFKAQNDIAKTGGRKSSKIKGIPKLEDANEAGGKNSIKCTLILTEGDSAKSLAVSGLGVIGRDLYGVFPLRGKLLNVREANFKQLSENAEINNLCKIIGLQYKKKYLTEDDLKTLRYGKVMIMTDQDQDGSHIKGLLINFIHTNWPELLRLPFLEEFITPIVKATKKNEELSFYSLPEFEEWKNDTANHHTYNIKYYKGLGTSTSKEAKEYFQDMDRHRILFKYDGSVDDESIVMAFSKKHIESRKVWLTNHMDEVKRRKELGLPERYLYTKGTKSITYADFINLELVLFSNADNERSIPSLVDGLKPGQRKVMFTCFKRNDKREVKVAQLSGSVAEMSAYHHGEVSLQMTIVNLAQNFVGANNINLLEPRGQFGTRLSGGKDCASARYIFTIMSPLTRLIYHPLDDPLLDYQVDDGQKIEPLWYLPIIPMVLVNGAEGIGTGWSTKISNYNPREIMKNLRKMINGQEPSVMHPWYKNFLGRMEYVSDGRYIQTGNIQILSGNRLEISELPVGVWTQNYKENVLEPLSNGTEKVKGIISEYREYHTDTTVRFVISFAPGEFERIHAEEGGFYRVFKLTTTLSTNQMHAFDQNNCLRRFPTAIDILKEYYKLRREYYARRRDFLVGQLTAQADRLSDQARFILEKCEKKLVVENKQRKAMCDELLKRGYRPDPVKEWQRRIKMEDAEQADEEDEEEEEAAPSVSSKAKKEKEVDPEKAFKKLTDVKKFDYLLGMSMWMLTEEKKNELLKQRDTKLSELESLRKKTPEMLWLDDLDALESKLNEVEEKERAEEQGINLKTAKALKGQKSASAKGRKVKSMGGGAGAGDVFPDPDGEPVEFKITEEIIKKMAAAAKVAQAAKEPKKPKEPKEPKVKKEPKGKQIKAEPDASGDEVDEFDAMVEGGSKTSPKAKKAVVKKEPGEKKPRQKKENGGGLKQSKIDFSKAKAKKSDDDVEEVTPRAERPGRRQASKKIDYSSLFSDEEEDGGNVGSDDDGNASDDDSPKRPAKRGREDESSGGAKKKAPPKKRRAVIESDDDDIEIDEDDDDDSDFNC
Description: (§5) In the absence of psorospermin, the intensity of the topoisomerase II-mediated DNA cleavage is much less at site B than at site A. As the concentration of psorospermin was increased, the topoisomerase II-mediated DNA cleavage at site A was decreased, while the cleavage at site B was enhanced. The psorospermin-induced DNA cleavage by topoisomerase II reaches a maximum of 3-fold at a 10 μM drug concentration (FIG. 4). […] On the other hand, the cleaved complex formation at site A was reduced in the presence of psorospermin, despite the 3-fold enhancement of psorospermin alkylation at site A.
(§6) Sites A and B are three base pairs apart from each other, and Drosophila topoisomerase II binds a region of approximately 23 base pairs, based on the results of a DNase I footprinting experiment (Lee et al, 1989). Therefore, it is likely that sites A and B are competing with each other for topoisomerase II binding, and the 25-fold enhancement of the psorospermin alkylation at site B dominates this competition. FIG. 5 summarizes the three possible biochemical consequences of the site-directed alkylation of DNA by psorospermin. Because psorospermin is a 7-alkyl adduct, depurination occurs slowly at room temperature over a period of several days.

topoisomerase II = topoisomerase II (Drosophila melanogaster, UniProt P15348); experiment: Topoisomerase II-mediated DNA cleavage; format: biochemical
Chain of topoisomerase II (P15348 whole entry): as the sequence (P15348 whole entry, one chain of several) above
Description: as §5, §6

(±)-(2′R,3′S) (2′S,3′R) psorospermin methyl ether [Compound B]
In vitro cytotoxic potency (MiaPaCa-2 (pancreatic)): 0.48 µg/mL
In vitro cytotoxic potency (MCF7 (breast)): 0.74 µg/mL
In vitro cytotoxic potency [1]: 0.30 µg/mL
sensitivity of HL-60 ([2]; HL-60, positive for c-myc and BCL-2): highly sensitive
In vitro cytotoxic potency (8226 (myeloma)): 0.33 µg/mL
In vitro cytotoxic potency (SW480 (colon)): 0.36 µg/mL

(2S,3R)-psorospermin methyl ether [Compound 116]
IC50 (MiaPaCa-2 (pancreatic); MiaPaCa, read-out: IC50): 4000 nM
IC50 (HT-29): 7000 nM
IC50 (DU 145; DU-145, read-out: IC50): 4000 nM

(2R,3S)-psorospermin methyl ether [Compound 117]
IC50 (MiaPaCa-2 (pancreatic); MiaPaCa, read-out: IC50): 400 nM
IC50 (HT-29): 700 nM
IC50 (DU 145; DU-145, read-out: IC50): 400 nM

COc1c2c(c3oc4ccccc4c(=O)c3c1OC)CC([C@@]1(C)CO1)O2 (mixture of isomers) [Compound A, (±)-(2′R,3′R) (2′S,3′S) psorospermin methyl ether]
IC50 (PC-3N): 130 nM
IC50 (MiaPaCa-2 (pancreatic); MIA PaCa-2, pancreas, read-out: IC50 Values): 180 nM
activity in the pancreatic cell line MiaPaCa (MiaPaCa-2 (pancreatic); MiaPaCa): remarkable activity
In vitro cytotoxic potency (MiaPaCa-2 (pancreatic)): 0.26 µg/mL
activity in MiaPaCa compared with gemcytabine (MiaPaCa-2 (pancreatic); MiaPaCa, versus gemcytabine): as good or better
IC50 [3]: 473 nM
IC50 (LnCAP): 460 nM
In vitro cytotoxic potency (MCF7 (breast)): 0.28 µg/mL
IC50 (MCF7 (breast); Breast, adenocarcinoma): 610 nM
IC50 [4]: 12 nM
In vitro cytotoxic potency [1]: 0.06 µg/mL
IC50 [5]: 24 nM
IC50 ([2]; HL60, origin printed: promyelocytic leukemia): 36 nM
In vitro cytotoxic potency ([2]; HL-60, 4 days, SRB): 0.026 µg/mL
In vitro cytotoxic potency (8226 (myeloma)): 0.21 µg/mL
IC50 (MCF 10A): 5350 nM
IC50 (PEAZ-1): 160 nM
effectiveness relative to Compound B (tumor cell lines): more potent; also recorded: twice as effective
In vitro cytotoxic potency (SW480 (colon)): 0.24 µg/mL
IC50 (K562): 36 nM
IC50 (PC-3): 280 nM
In vitro cytotoxic potency [6]: 0.062 µg/mL
IC50 (A2780): 63 nM
IC50 [7]: 11 nM
IC50 (DU 145; DU 145, Prostate, brain mets, read-out: IC50 Values): 304 nM

COc1cc2c(c3oc4c(O)cccc4c(=O)c13)C[C@H]([C@@]1(C)CO1)O2 [psorospermin]
activity in vivo against P388 mouse leukemia (P388 mouse leukemia): significant activity
activity in vitro against various tumor cell lines (various tumor cell lines): significant activity
enhancement of psorospermin alkylation at site A ([8]; site A): 3 fold
enhancement of the psorospermin alkylation at site B ([8]; site B): 25 fold
topoisomerase II-mediated DNA cleavage at site A (topoisomerase II; site A, as the concentration of psorospermin was increased): decreased
psorospermin-induced DNA cleavage by topoisomerase II, maximum (topoisomerase II; site B, 10 μM drug concentration): 3 fold
